# Data from patent US6472348B1, “Pyridone derivatives and herbicides” (Kumiai Chemical Industry Co., Ltd., priority 1996, dated 2002).
# What was measured:
# Type in all cases: in vivo
# Parameters in all cases: scale not given here
# China jute (Ab) [1] = assay: Test Example 4: crop plant selectivity by upland field soil treatment (cotton), herbicidal effects; details: evaluated 21st day after application
# Summary of the method: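 Cotton and weeds (incl. China jute, pale smartweed, slender amaranth) sown in sand-filled pots and covered with soil, then soil-treated. Grown in greenhouse; herbicidal effect and cotton phytotoxicity scored on day 21 after application against a rating standard.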
# wheat (Tr) = assay: Test Example 5: crop plant selectivity by upland field soil treatment (wheat), phytotoxicity; details: 21st day after application
# Summary of the method: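 Seeds sown in pots of sand and covered with soil. Soil treatment applied. Plants cultured in a greenhouse. Effects rated by standard scale after 21 days.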
# soybean (Gl) = assay: Test Example 6: crop plant selectivity by upland field soil treatment (soybean), phytotoxicity; details: 21st day after application
# Summary of the method: (§1)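 Greenhouse pot test with soil-applied compound after sowing soybean and weeds in sand; effects graded on day 21 after application.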
# China jute (Ab) [2] = assay: Test Example 6: crop plant selectivity by upland field soil treatment (soybean), herbicidal effects; details: 21st day after application
# Summary of the method: as §1
# [3] = tested on: common lambsquarters (Ch); assay: as above; details: 21st day after application
# Summary of the method: as §1
# green foxtail (Se) = assay: as above; details: 21st day after application
# Summary of the method: as §1
# pale smartweed (Po) [4] = assay: as above; details: 21st day after application
# Summary of the method: as §1
# slender amaranth (Am) [5] = assay: as above; details: 21st day after application
# Summary of the method: as §1
# China jute (Ab) [6] = assay: Test Example 9: crop plant selectivity by upland field foliage treatment (wheat), herbicidal effects; details: dose 1.6 g ai/10a, 14th day after treatment
# Summary of the method: (§2)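 Sand-filled pot, wheat + weeds co-sown; greenhouse 2 wk, then foliage treatment; greenhouse culture continued; visual scoring of weed control and crop injury at 14 d post-treatment per grading scale.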
# [7] = tested on: common lambsquarters (Ch); assay: as above; details: dose 1.6 g ai/10a, 14th day after treatment
# Summary of the method: as §2
# pale smartweed (Po) [8] = assay: as above; details: dose 1.6 g ai/10a, 14th day after treatment
# Summary of the method: as §2
# slender amaranth (Am) [9] = assay: as above; details: dose 1.6 g ai/10a, 14th day after treatment
# Summary of the method: as §2
Structure (SMILES),Herbicidal effects Ab (China jute (Ab) [1]; dose 6.3 g ai/10 a),Phytotoxicity Tr (wheat (Tr); dose 6.3 g ai/10a),Phytotoxicity Gl (soybean (Gl); dose 6.3 g ai/10a),Herbicidal effects Ab (China jute (Ab) [2]; dose 6.3 g ai/10a),Herbicidal effects Ch ([3]; dose 6.3 g ai/10a),Herbicidal effects Se (green foxtail (Se); dose 6.3 g ai/10a),Herbicidal effects Po (pale smartweed (Po) [4]; dose 6.3 g ai/10a),Herbicidal effects Am (slender amaranth (Am) [5]; dose 6.3 g ai/10a),Herbicidal effects Ab (China jute (Ab) [6]),Herbicidal effects Ch [7],Herbicidal effects Po (pale smartweed (Po) [8]),Herbicidal effects Am (slender amaranth (Am) [9]),Herbicidal effects Ab (China jute (Ab) [1]; dose 1.6 g ai/10 a),Phytotoxicity Tr (wheat (Tr); dose 1.6 g ai/10a),Phytotoxicity Gl (soybean (Gl); dose 1.6 g ai/10a),Herbicidal effects Ab (China jute (Ab) [2]; dose 1.6 g ai/10a),Herbicidal effects Ch ([3]; dose 1.6 g ai/10a),Herbicidal effects Se (green foxtail (Se); dose 1.6 g ai/10a),Herbicidal effects Po (pale smartweed (Po) [4]; dose 1.6 g ai/10a),Herbicidal effects Am (slender amaranth (Am) [5]; dose 1.6 g ai/10a)
C=CC(C)Oc1cc(-c2ccc(C(F)(F)F)n(C)c2=O)c(F)cc1Cl (stereo not shown) [Compound 1-182],5,1,1,5,5,5,5,5,5,5,5,5,,,,,,,,
CCON=Cc1cc(-c2ccc(C(F)(F)F)n(C)c2=O)c(F)cc1Cl [Compound 1-187],5,1,1,5,5,5,5,5,5,5,5,5,,,,,,,,
CCOC(=O)CON=Cc1cc(-c2ccc(C(F)(F)F)n(C)c2=O)c(F)cc1Cl [Compound 1-191],5,1,2,5,5,5,5,5,5,5,5,5,,,,,,,,
C=CC(O)c1cc(-c2ccc(C(F)(F)F)n(C)c2=O)c(F)cc1Cl (stereo not shown) [Compound 1-197],5,1,1,5,5,5,5,5,5,5,5,5,,,,,,,,
C#CC(O)c1cc(-c2ccc(C(F)(F)F)n(C)c2=O)c(F)cc1Cl (stereo not shown) [Compound 1-202],5,,,,,,,,5,5,5,5,5,1,2,5,5,5,5,5
CSCOc1cc(-c2ccc(C(F)(F)F)n(C)c2=O)c(F)cc1Cl [Compound 1-208],5,1,2,5,5,5,4,5,5,5,5,5,,,,,,,,
C#CCN1C(=O)COc2cc(Cl)c(-c3ccc(C(F)(F)F)n(C)c3=O)cc21 [Compound 2-25],5,2,1,5,5,5,5,5,5,5,5,5,5,1,0,5,5,5,5,5
C=CCN1C(=O)COc2cc(Cl)c(-c3ccc(C(F)(F)F)n(C)c3=O)cc21 [Compound 2-26],5,1,1,5,5,5,5,5,5,5,5,5,,,,,,,,
Cc1cc2c(-c3ccc(C(F)(F)F)n(C)c3=O)c(F)cc(Cl)c2o1 [Compound 4-1],5,2,2,5,5,5,5,5,5,5,5,5,5,1,1,5,5,5,5,5
C#CCN1C(=O)COc2cc(F)c(-c3cn(C)c(C(F)(F)F)cc3=O)cc21 [Compound 7-1],5,2,1,5,5,5,5,,5,5,5,5,,,,,,,,
